Values of other authors, collected in patent US20250190808A1, “DEVICE AND METHOD FOR IM[…] TR[…] NETWORK FOR T[…] SEQUENCE, AND TRAINING DEVICE AND METHOD USING SAME” (LG MANAGEMENT DEVELOPMENT INSTITUTE CO., LTD., priority 2022, published 2025).
Like-named read-outs stand apart in the source and are kept apart here.

Columns and labels:
MHC TYPE A*0101 = settings: read-out: MHC BINDING (IC50)
MHC TYPE A*0204 = settings: read-out: MHC BINDING (IC50)
MHC TYPE A*0201 = MHC TYPE A*0201 (Homo sapiens, UniProt P04439, D140Y/D185E/D98H/E176V/E277Q/G131W/G231S/I119V/I121R/I166T/I218V/L300P/L318F/N151K/N90K/P208A/P217A/Q86G/Q94H/R138H/R169H/T345S); settings: read-out: MHC BINDING (IC50)
MHC TYPE B*0101 = settings: read-out: MHC BINDING (IC50)

GQIVTMFEA
IC50 (MHC TYPE A*0101): < 0.1 µM
ACTIVATION OF T-CELL (T-cell; MHC type A*0101): Negative

MFEALPHII
IC50 (MHC TYPE A*0204): 12 µM

MGQIVTMFE
IC50 (MHC TYPE A*0201): 0.021 µM
IC50 (MHC TYPE B*0101): > 20 µM
ACTIVATION OF T-CELL (T-cell; MHC type A*0201): Positive
